Measured values as given in US11980633B2, “Method for treating cancer using a combination of DNA-damaging agents and DNA-PK inhibitors” (Vertex Pharmaceuticals Incorporated, priority 2016, dated 2024).

What was measured:
Type in all cases: cell-based
[1] = tested on: primary human tumors (NSCLC, pancreatic, gastric, esophageal); test: TCA: Compound B-1 with bleomycin, primary tumors; parameters: Average Bliss score: scale not given here
Description: (§1) In both studies, cell viability was assessed after 6 days in culture. Statistical analysis of the combination matrix was performed to assess whether synergy, additivity, or antagonism of the combination treatments were observed.
(§2) Materials: Primary patient samples (See Tables 16 and 17, below) were excised from mice when they reached 500 mg to 1000 mg in size and processed immediately, or after overnight shipment. Tumors were serially passaged by subcutaneous implantation of 50 mg to 150 mg fragments into the flanks of immunocompromised (nude) mice. Tumors were used within the first 5 or 7 passages.
(§3) Tumor Chemosensitivity Assay (TCA): Primary tumor samples were grown and serially passaged in immunocompromised mice. Tumors were mechanically dissociated into small fragments (1 mm to 2 mm) with scalpels in phosphate buffered saline (PBS or RPMI) and centrifuged at 200×g for 5 minutes at room temperature in 50 mL centrifuge tubes. Samples were resuspended in 10 mL of cell dissociation reagent and enzymatically digested with mechanical agitation for 1 to 3 hours at 37° C., 5% CO2 to a single cell suspension. Ten mL of complete RPMI-1640 media was added to the cell mixture and pipetted up and down 4 to 5 times. The mixture was then passed through a 70 μm or 100 μm mesh strainer to remove undigested tumor. The filtrate was then centrifuged 200×g for 5 minutes at room temperature and resuspended in 20 mL complete RPMI-1640. This cell suspension was slowly layered onto 20 mL of room temperature Histopaque and centrifuged at 400×g for 15 minutes at room temperature without a brake. The interface was transferred to a new 50 mL centrifuge tube and 15 mL of complete RPMI-1640 was added. This suspension was centrifuged at 200×g at room temperature, and the resulting pellet was resuspended in 10 mL of complete PC-1 media, except for pancreatic tumors in which case Pancreatic Medium was used. Cells were diluted in Trypan blue, and viable cells that excluded the dye were counted. Only the larger, tumor cells were included in the cell count. Cells were diluted in complete PC-1 or Pancreatic media, as appropriate for the cells, and were plated at 15,000 to 20,000 cells per well in 100-135 μL in ultra-low attachment U-bottom plates.
(§4) Compound Addition: For these studies, a 10 mM stock of the DNA-PK inhibitor (Compound B-1 or Compound B-2) was made in DMSO and used to add to cells from most tumors with HP D300 Digital Dispenser (Tecan US, Morrisville, NC, USA), or diluted into the appropriate media (PC-1 or pancreatic media) as a 5-10× stock and added to cells (OVX001 and ENX001, 005). PC-1, pancreatic media, and chemotherapeutics were also added so that final well volume was 150 μL. Doxorubicin was made as DMSO stock of 1 or 10 mM and added to cells for most tumors with HP D300 Digital Dispenser, or diluted into PC-1 as 5-10× stock and added to cells (OVX001 and ENX001, 005). Cisplatin (cis-diammine platinum(II), dichloride) was prepared fresh to 10 mM in warm (60° C.) distilled water and diluted in PC-1 as a 5-10× stock. […] Different starting concentrations, dose ranges, and number of doses were used for each experiment based on the response data available at the time.
(§5) For bleomycin experiments, combinations with Compound B-1 at all concentrations were run in triplicate. A 6×3 matrix was designed on one plate, consisting of a 2-point concentration range of 0.73 μM and 2.2 μM Compound B-1 plus no treatment control, in 3 columns each of 6 wells. Bleomycin (plus ‘no treatment’ control) was added to 9 wells in rows of this plate. Similar 6×3 matrices were set up for additional agents with different starting concentrations for compound dilutions. For cisplatin experiments the starting concentration was 30 μM which was diluted 1:3. […] For doxorubicin hydrochloride experiments the starting concentration was 5 μM doxorubicin which was diluted 1:3. For gemcitabine experiments the starting concentration was 5 μM gemcitabine which was diluted 1:3. […]

[2] = tested on: primary human pancreatic tumors; test: TCA: Compound B-1 with gemcitabine, primary pancreatic tumors
Description: as §1, §2, §3, §4, §5

[3] = tested on: primary human tumors (esophageal, gastric); test: TCA: Compound B-1 with 5-FU, primary tumors
Description: as §1, §2, §3, §4, §5

[4] = tested on: primary human tumors (esophageal, gastric); test: TCA: Compound B-1 with carboplatin, primary tumors
Description: as §1, §2, §3, §4, §5

CNC(=O)c1ccnc2c([C@H](C)CNc3cc(-c4cnc(C)nc4)ncn3)cccc12 [Compound B-1]
number of tumors that showed synergy or additivity ([1]; of twenty tumors assessed): 20 tumors
tumors that showed strong synergy ([1]; six of 20 tumors): 30%
Average Bliss score ([1]; tumor ESX005, Esophageal): 6
Synergy/Additivity/Antagonism ([1]; tumor ESX005, Esophageal): Synergistic (greater than 5 are considered synergistic)
Average Bliss score ([1]; tumor ESX008, Esophageal): 7
Synergy/Additivity/Antagonism ([1]; tumor ESX008, Esophageal): Synergistic (greater than 5 are considered synergistic)
Average Bliss score ([1]; tumor GAX001, Gastric): 14
Synergy/Additivity/Antagonism ([1]; tumor GAX001, Gastric): Strongly Synergistic (greater than 10 are considered strongly synergistic)
Average Bliss score ([1]; tumor GAX007, Gastric): 5
Synergy/Additivity/Antagonism ([1]; tumor GAX007, Gastric): Synergistic (greater than 5 are considered synergistic)
Average Bliss score ([1]; tumor GAX027, Gastric): 11
Synergy/Additivity/Antagonism ([1]; tumor GAX027, Gastric): Strongly Synergistic (greater than 10 are considered strongly synergistic)
Average Bliss score ([1]; tumor OD25982, Lung (NSCLC)): 4
Synergy/Additivity/Antagonism ([1]; tumor OD25982, Lung (NSCLC)): Additive (Values between 5 and −5 are considered additive)
Average Bliss score ([1]; tumor OD26131, Lung (NSCLC)): 9
Synergy/Additivity/Antagonism ([1]; tumor OD26131, Lung (NSCLC)): Synergistic (greater than 5 are considered synergistic)
Average Bliss score ([1]; tumor OD26749, Lung (NSCLC)): 10
Synergy/Additivity/Antagonism ([1]; tumor OD26749, Lung (NSCLC)): Strongly Synergistic (greater than 10 are considered strongly synergistic)
Average Bliss score ([1]; tumor OD29498, Lung (NSCLC)): 3
Synergy/Additivity/Antagonism ([1]; tumor OD29498, Lung (NSCLC)): Additive (Values between 5 and −5 are considered additive)
Average Bliss score ([1]; tumor OD33117, Lung (NSCLC)): 9
Synergy/Additivity/Antagonism ([1]; tumor OD33117, Lung (NSCLC)): Synergistic (greater than 5 are considered synergistic)
Average Bliss score ([1]; tumor OD33966, Lung (NSCLC)): 3
Synergy/Additivity/Antagonism ([1]; tumor OD33966, Lung (NSCLC)): Additive (Values between 5 and −5 are considered additive)
Average Bliss score ([1]; tumor OD36088, Lung (NSCLC)): 14
Synergy/Additivity/Antagonism ([1]; tumor OD36088, Lung (NSCLC)): Strongly Synergistic (greater than 10 are considered strongly synergistic)
Average Bliss score ([1]; tumor P110323, Pancreatic): 10
Synergy/Additivity/Antagonism ([1]; tumor P110323, Pancreatic): Strongly Synergistic (greater than 10 are considered strongly synergistic)
Average Bliss score ([1]; tumor P110325, Pancreatic): 0
Synergy/Additivity/Antagonism ([1]; tumor P110325, Pancreatic): Additive (Values between 5 and −5 are considered additive)
Average Bliss score ([1]; tumor P110408, Pancreatic): 7
Synergy/Additivity/Antagonism ([1]; tumor P110408, Pancreatic): Synergistic (greater than 5 are considered synergistic)
Average Bliss score ([1]; tumor P110413, Pancreatic): 6
Synergy/Additivity/Antagonism ([1]; tumor P110413, Pancreatic): Synergistic (greater than 5 are considered synergistic)
Average Bliss score ([1]; tumor P110504, Pancreatic): 8
Synergy/Additivity/Antagonism ([1]; tumor P110504, Pancreatic): Synergistic (greater than 5 are considered synergistic)
Average Bliss score ([1]; tumor P110603, Pancreatic): 14
Synergy/Additivity/Antagonism ([1]; tumor P110603, Pancreatic): Strongly Synergistic (greater than 10 are considered strongly synergistic)
Average Bliss score ([1]; tumor TS110310, Lung (NSCLC)): 2
Synergy/Additivity/Antagonism ([1]; tumor TS110310, Lung (NSCLC)): Additive (Values between 5 and −5 are considered additive)
Average Bliss score ([1]; tumor YAS111611, Lung (NSCLC)): 6
Synergy/Additivity/Antagonism ([1]; tumor YAS111611, Lung (NSCLC)): Synergistic (greater than 5 are considered synergistic)
tumors that showed additivity ([2]; 2 of 4 pancreatic tumors): 50%
tumors that showed antagonism ([2]; 2 of 4 pancreatic tumors): 50%
Average Bliss score ([2]; tumor P110325, Pancreatic): −9
Synergy/Additivity/Antagonism ([2]; tumor P110325, Pancreatic): Antagonistic (less than −5 are considered antagonistic)
Average Bliss score ([2]; tumor P110413, Pancreatic): −1
Synergy/Additivity/Antagonism ([2]; tumor P110413, Pancreatic): Additive (Values between 5 and −5 are considered additive)
Average Bliss score ([2]; tumor P110504, Pancreatic): −6
Synergy/Additivity/Antagonism ([2]; tumor P110504, Pancreatic): Antagonistic (less than −5 are considered antagonistic)
Average Bliss score ([2]; tumor P110603, Pancreatic): −2
Synergy/Additivity/Antagonism ([2]; tumor P110603, Pancreatic): Additive (Values between 5 and −5 are considered additive)
tumors that showed synergy or additivity ([3]; 5 tumors): 100%
Average Bliss score ([3]; tumor ESX005, Esophageal): −1
Synergy/Additivity/Antagonism ([3]; tumor ESX005, Esophageal): Additive (Values between 5 and −5 are considered additive)
Average Bliss score ([3]; tumor ESX008, Esophageal): −2
Synergy/Additivity/Antagonism ([3]; tumor ESX008, Esophageal): Additive (Values between 5 and −5 are considered additive)
Average Bliss score ([3]; tumor GAX001, Gastric): 6
Synergy/Additivity/Antagonism ([3]; tumor GAX001, Gastric): Synergistic (greater than 5 are considered synergistic)
Average Bliss score ([3]; tumor GAX007, Gastric): 0
Synergy/Additivity/Antagonism ([3]; tumor GAX007, Gastric): Additive (Values between 5 and −5 are considered additive)
Average Bliss score ([3]; tumor GAX027, Gastric): 4
Synergy/Additivity/Antagonism ([3]; tumor GAX027, Gastric): Additive (Values between 5 and −5 are considered additive)
tumors that showed synergy or additivity ([4]; 5 tumors): 100%
Average Bliss score ([4]; tumor ESX005, Esophageal): 3
Synergy/Additivity/Antagonism ([4]; tumor ESX005, Esophageal): Additive (Values between 5 and −5 are considered additive)
Average Bliss score ([4]; tumor ESX008, Esophageal): 5
Synergy/Additivity/Antagonism ([4]; tumor ESX008, Esophageal): Synergistic (greater than 5 are considered synergistic)
Average Bliss score ([4]; tumor GAX001, Gastric): 2
Synergy/Additivity/Antagonism ([4]; tumor GAX001, Gastric): Additive (Values between 5 and −5 are considered additive)
Average Bliss score ([4]; tumor GAX007, Gastric): 4
Synergy/Additivity/Antagonism ([4]; tumor GAX007, Gastric): Additive (Values between 5 and −5 are considered additive)
Average Bliss score ([4]; tumor GAX027, Gastric): 4
Synergy/Additivity/Antagonism ([4]; tumor GAX027, Gastric): Additive (Values between 5 and −5 are considered additive)
